This is an account of results in paper PMC9408991, “Antitumor Effects of a New Retinoate of the Fungal Cytotoxin Illudin M in Brain Tumor Models” (International Journal of Molecular Sciences, 2022).

In assay [1] the test system is HT-29 colon carcinoma cells. Kind of assay: MTT cell viability assay, HT-29 colon carcinoma. Type of assay: cell-based. Particulars: Homo sapiens, read-out: Inhibitory concentration IC50. On the procedure:
(§1) 518A2 (Department of Radiotherapy, Medical University of Vienna, Vienna, Austria) melanoma, KB-V1^Vbl (ACC-149) cervix carcinoma, MCF-7^Topo (ACC-115) breast carcinoma, HT29 (ACC-299) colon carcinoma were cultivated in Dulbecco’s Modified Eagle Medium (DMEM) supplemented with 10% fetal bovine serum and 1% antibiotic-antimycotic at 37 °C, 5% CO2, and 95% humidity. To keep MCF-7^Topo and KB-V1^Vbl cells resistant, the maximum-tolerated doses of topotecan or vinblastine were added to the cell culture medium 24 h after every passage. The human HL60 leukemia cells were obtained from the German National Resource Center for Biological Material (DSMZ), Braunschweig. Neuroectodermal stem cells NE-4C (ATCC No. CRL-2925), primary mouse astrocytes, rat glioma C6 (ATCC No. CCL-107) and human glioma U87 (ATCC No. HTB-14) were used.
(§2) Non-GBM cells (5 × 10^4 cells/mL, 100 µL/well) were grown in 96-well plates for 24 h. […] After the addition of 12.5 µL of a 0.5% MTT solution in PBS, the cells were incubated for 3 h at 37 °C so that the water-soluble MTT could be converted to formazan crystals. Then, the plates were centrifuged (300× g, 5 min, 4 °C), the medium withdrawn, and the formazan dissolved in 25 µL of DMSO containing 10% sodium dodecylsulfate (SDS) and 0.6% acetic acid for at least 2 h at 37 °C. In the case of the HL60 cells, after 2 h, the precipitate of formazan crystals was redissolved in a 10% solution of SDS in DMSO containing 0.6% acetic acid.

For a further assay, the system named is C6 astrocytoma cells. Kind of assay: MTT cell viability assay, C6 astrocytoma. Type of assay: cell-based. The conditions noted are these: Rattus norvegicus, read-out: Inhibitory concentration IC50. The method, then:
as §1
Non-GBM cells (5 × 10^4 cells/mL, 100 µL/well) were grown in 96-well plates for 24 h. Then, they were treated with various concentrations of the test compounds or vehicle (DMSO, or EtOH) for 72 h at 37 °C. After the addition of 12.5 µL of a 0.5% MTT solution in PBS, the cells were incubated for 3 h at 37 °C so that the water-soluble MTT could be converted to formazan crystals. Then, the plates were centrifuged (300× g, 5 min, 4 °C), the medium withdrawn, and the formazan dissolved in 25 µL of DMSO containing 10% sodium dodecylsulfate (SDS) and 0.6% acetic acid for at least 2 h at 37 °C. In the case of the HL60 cells, after 2 h, the precipitate of formazan crystals was redissolved in a 10% solution of SDS in DMSO containing 0.6% acetic acid.
(§3) […] Afterward, 10 µL of a 5 mg/mL MTT solution in PBS was added to the cells for 3 h at 37 °C. Then, the spheres were centrifuged shortly to collect the cells on the bottom of the plate, and the medium was removed by careful pipetting for both adherently grown and floating sphere GBM cultures. Afterward, formazan was dissolved in a mixture (24:1 v:v) of isopropanol and 1 M HCl using 100 µL for adherent cells by shaking the plates for at least 20 min. The absorbance of formazan (λ = 570 nm), and background (λ = 630 nm) was measured with a microplate reader (Tecan Spark, Tecan Deutschland GmbH, Crailsheim, Germany).

In another assay the test system is U87 glioma cells. Kind of assay: MTT cell viability assay, U87 glioma. In kind it is cell-based. The conditions noted are these: Homo sapiens, U-87 MG, read-out: Inhibitory concentration IC50. The method, then:
as §1, §3

Another assay concerns U251 glioblastoma cells. Briefly: MTT cell viability assay, U251 glioblastoma. Particulars: Homo sapiens, read-out: Inhibitory concentration IC50. Type of assay: cell-based. On the procedure:
U251 (formerly known as U-373 MG; ECACC 09063001), Mz54 (CVCL_M406) human glioblastoma cell lines were cultured in DMEM+GlutaMax supplemented with 10% fetal bovine serum and 1% penicillin/streptomycin mixture. The human glioma cell line Mz54 was obtained from the Dept. of Neurosurgery, University Medical Centre, Johannes Gutenberg University Mainz, Germany, where this line was isolated from a recurrent grade IV glioblastoma. U251 and Mz54 cells were used in passages between 10 and 25 after re-authentication and 40 to 55 after culture establishment, respectively. Only mycoplasma-free cell cultures were used.
as §3

In the next assay the test system is primary neurons. Kind of assay: MTT cell viability assay, primary neurons. In kind it is cell-based. Particulars: Mus musculus, Primary neuron, read-out: Inhibitory concentration IC50. On the procedure:
NE-4C cells derived from the anterior brain vesicles of p53-deficient 9-day-old mouse embryos were maintained in Minimum Essential Medium (MEM; Sigma Aldrich, Taufkirchen, Germany) supplemented with 5% fetal calf serum (FCS; Invitrogen-Gibco, Carlsbad, CA, USA), 4 mM glutamine (Sigma-Aldrich, Taufkirchen, Germany) and 40 ug/mL gentamycin (Chinoin, Budapest, Hungary). For maintenance, subconfluent cultures were regularly split by trypsinization (0.05 w/v% trypsin in PBS) into poly-L-lysine-coated Petri dishes. Primary astrocytes were isolated from whole brains of neonatal (P0-P3) mice, as described earlier. In brief, meninges were removed, and the tissue pieces were subjected to enzymatic dissociation, using 0.05% w/v trypsin and 0.05% w/v DNase for 10 min at room temperature. The cells were plated onto poly-L-lysine coated plastic surfaces and grown in MEM supplemented with 10% fetal calf serum, 4 mM glutamine and 40 ug/mL gentamycin. Primary neuronal cultures were prepared from embryonic (E15–E16) mouse (CD1) forebrains, as described earlier. In brief, cell suspensions were prepared by mechanical dissociation over a nylon mesh with a pore diameter of 40–42 μm. The cells were seeded at 10^5 cells/cm^2 density onto PLL-coated surfaces. The cultures were maintained in MEM supplemented with 5% FCS, 4 mM glutamine, 40 µg/mL gentamicin and 2.5 μg/mL amphotericin B (Sigma). In co-culture experiments, U87 glioma cells were seeded onto established neuronal cultures at DIV3 in a 25,000 cell/cm^2 density.
as §2

The next assay deals with MZ-54 glioblastoma cells. Kind of assay: Annexin V/PI flow cytometry. In kind it is cell-based, human. Particulars: MZ-54 cells. On the procedure: U251 und Mz54 glioblastoma cells (6 × 10^5 cells/mL, 0.5 mL/well) were seeded in 24-well plates. The next day, the cells were treated with 1, 2 or vehicle (DMSO) for 48 h. Prior to the measurement, the cells were harvested and stained using Annexin-V-APC (BD Biosciences, Heidelberg, Germany) and propidium iodide (PI, 0.05 mg/mL, Sigma-Aldrich, Taufkirchen, Germany). Cells were analyzed with BD Accuri C6 flow-cytometer (BD Biosciences), and data processing was performed using BD Accuri C6 software (BD Biosciences).
Figure 7 (A–D). Annexin V/PI flow cytometry of MZ–54 cells upon treatment with 1 or 2, mean + SEM; Brown–Forsythe ANOVA test with Dunnett’s T3 multiple comparison test (compared with DMSO control); * < 0.05; ** < 0.01; *** < 0.001; **** < 0.0001.

Read-outs that look alike come from different tables or passages of the source.

With `CC1=C(/C=C/C(C)=C/C=C/C(C)=C/C(=O)O[C@@H]2C3=C(C)C4(CC4)[C@@](C)(O)C(=O)C3=CC2(C)C)C(C)(C)CCC1` [Compound 2, illudin M retinoate], the IC50 worked out at 38 ± 4 µM in assay [1] (HT-29, 24 h exposure); 4 ± 1.3 µM in assay [1] (HT-29, 48 h exposure); 40 ± 4 µM with C6 astrocytoma cells (C6, 24 h exposure); 12 ± 1.3 µM with C6 astrocytoma cells (C6, 48 h exposure); 37 ± 3 µM in the assay with U87 glioma cells (U87, 24 h exposure); 2.7 ± 0.7 µM with U87 glioma cells (U87, 48 h exposure). Further, the IC50 is 4.51 ± 1.3 µM in the assay on U251 glioblastoma cells (U-251, U251, 48 h exposure); 26 ± 1 µM with primary neurons (24 h exposure); 14 ± 2 µM in the assay with primary neurons (48 h exposure). In addition, the “cell death (Annexin V/PI)” value in the assay on MZ-54 glioblastoma cells was “dose- and time-dependent increase in cell death”.
Turning to `CC1=C2C(=CC(C)(C)[C@@H]2O)C(=O)[C@](C)(O)C12CC2` [Compound 1, illudin M], the IC50 is 1.5 ± 0.6 µM in assay [1] (HT-29, 24 h exposure); 0.06 ± 0.01 µM in assay [1] (HT-29, 48 h exposure); 1 ± 0.3 µM in the assay on C6 astrocytoma cells (C6, 24 h exposure); 0.4 ± 0.06 µM with C6 astrocytoma cells (C6, 48 h exposure); 0.63 ± 0.04 µM in the assay on U87 glioma cells (U87, 24 h exposure); 0.13 ± 0.03 µM in the assay on U87 glioma cells (U87, 48 h exposure). Further, the IC50 in the assay on U251 glioblastoma cells (U-251, U251, 24 h exposure) came out at 0.3 ± 0.05 µM; in the assay with U251 glioblastoma cells (U-251, U251, 48 h exposure), 0.12 ± 0.02 µM; in the assay with primary neurons (24 h exposure), 0.6 ± 0.12 µM; with primary neurons (48 h exposure), 0.19 ± 0.04 µM. The “cell death (Annexin V/PI)” value with MZ-54 glioblastoma cells is “dose- and time-dependent increase in cell death”.
